Experimental data: the NIST ThermoML archive (doi:10.1016/j.fluid.2004.11.019)

Assay: xn = mol fraction of the nth substance listed
Conditions: 323.15 K, Liquid

CCO [ethanol] + O
mass density [kg/m3]
Conditions	100 kPa	10000 kPa	20000 kPa
x1 = 0.003	–	990.8	994.9
x1 = 0.0042	–	989.6	993.9
x1 = 0.0082	–	988.2	992.4
x1 = 0.0119	–	986.9	991.1
x1 = 0.0158	–	984.7	988.9
x1 = 0.0184	–	983.3	987.5
x1 = 0.0219	–	982.2	986.3
x1 = 0.0255	–	980.6	984.7
x1 = 0.0279	–	979	983.1
x1 = 0.0315	–	978.1	982.2
x1 = 0.0366	–	975.6	979.6
x1 = 0.0392	–	974.3	978.4
x1 = 0.0439	–	972.8	976.8
x1 = 0.0483	–	970.7	974.8
x1 = 0.0516	–	970	974
x1 = 0.0559	–	968.6	972.7
x1 = 0.06	–	967.1	971.2
x1 = 0.0652	–	965	969.1
x1 = 0.0679	–	964.3	968.3
x1 = 0.0722	–	962.5	966.6
x1 = 0.0801	–	959.3	963.4
x1 = 0.084	–	958.9	963
x1 = 0.0879	–	957.1	961.2
x1 = 0.0926	–	955.5	959.6
x1 = 0.0958	–	954.4	958.5
x1 = 0.1006	–	952.8	956.9
x1 = 0.1111	–	949	953.2
x1 = 0.1225	–	945.1	–
x1 = 0.1296	–	942.6	–
x1 = 0.1402	–	939	–
x1 = 0.151	–	935.2	–
x1 = 0.1601	–	932.2	–
x1 = 0.1703	–	928.8	–
x1 = 0.18	920.6	925.5	–
x1 = 0.1903	917.3	922.1	–
x1 = 0.1996	914.1	919	–
x1 = 0.2269	905.2	910.3	–
x1 = 0.2502	898.1	903.4	–
x1 = 0.2745	890.8	896.3	–
x1 = 0.3009	883.5	889.2	–
x1 = 0.35	870.2	876.2	–
x1 = 0.4034	857.3	863.7	–
x1 = 0.4501	846.7	853.3	–
x1 = 0.498	837	843.9	–
x1 = 0.5501	826.9	834.3	–
x1 = 0.5998	818.4	826.3	–
x1 = 0.6489	810.1	817.9	–
x1 = 0.6967	802.8	810.9	–
x1 = 0.7475	795.4	803.8	–
x1 = 0.7996	788.4	796.9	–
x1 = 0.8484	781.9	790.8	–
x1 = 0.8993	775.6	784.7	–
x1 = 0.9503	769.5	779	–
x1 = 1	763.7	773.4	–
